Reference: US9243237B2, “Method for mass production of factor VII/VIIA” (HANMI SCIENCE CO., LTD, priority 2010, dated 2016)

Columns and labels:
Format in all cases: cell-based, Chinese hamster
[1] = tested on: CHO/dhfr- cells transformed with pX0GC-FVII; assay: Selection of human factor VII-expressing cells in MTX selection medium, expression level by enzyme immunoassay; conditions: MTX concentration of 10 nM or higher
Protocol: The transformed cells of Example <2-1> were seeded at a density of 2×10^4 cells/well to 24-well plates. When the cells were grown to almost full confluence, serum-free CHO-A-SFM (Gibco, Cat. No. 05-5072EF) supplemented with 0.3 mM sodium butyrate (Sigma, Cat. No. B5887) was aliquoted in an amount of 200 μL/well, followed by incubation at 33° C. for 48 hours in a 5% CO2 incubator. The cell culture was transferred to 1.5 mL tubes and centrifuged. Expression levels of human factor VII in the supernatants were measured by taking measurements using an enzyme immunoassay kit (American Diagnostica, Cat. no. 877) according to the manufacturer's instruction. In detail, the cell culture and the standard substance enclosed in the kit were diluted to certain concentrations in physiological saline containing 0.05% Tween-20, and the dilutions were added in an amount of 100 μL to each well of the kit and allowed to react at room temperature for one hour on a plate shaker. […] Five minutes later, 50 μL of a stopping solution was added to each well, followed by measuring absorbance at 450 nm. A standard curve and a function were obtained from the concentrations of the standard solution and the absorbance values obtained. […]

[2] = tested on: hFVII-expressing recombinant CHO cell line (HMF708); assay: Growth of hFVII-expressing cell line in production medium containing sodium butyrate (50 mL Erlenmeyer flasks), hFVII level by enzyme immunoassay; conditions: for FVII Level (% compared to control %): 30.0°C, day 4, supernatant
Protocol: (§1) The transformed cells of Example <2-1> were seeded at a density of 2×10^4 cells/well to 24-well plates. When the cells were grown to almost full confluence, serum-free CHO-A-SFM (Gibco, Cat. No. 05-5072EF) supplemented with 0.3 mM sodium butyrate (Sigma, Cat. No. B5887) was aliquoted in an amount of 200 μL/well, followed by incubation at 33° C. for 48 hours in a 5% CO2 incubator. The cell culture was transferred to 1.5 mL tubes and centrifuged. Expression levels of human factor VII in the supernatants were measured by taking measurements using an enzyme immunoassay kit (American Diagnostica, Cat. no. 877) according to the manufacturer's instruction. In detail, the cell culture and the standard substance enclosed in the kit were diluted to certain concentrations in physiological saline containing 0.05% Tween-20, and the dilutions were added in an amount of 100 μL to each well of the kit and allowed to react at room temperature for one hour on a plate shaker. After being washed four times with the washing solution enclosed in the kit, each of the wells was incubated at room temperature for one hour with 100 μL of an anti-human factor VII antibody on a plate shake. Each well was again washed four times with the washing solution and then incubated at room temperature for 30 min with 100 μL of an HRP (horseradish peroxidase)-conjugated antibody to the anti-human factor VII antibody. Subsequently, the wells were washed four times, and incubated with 100 μL of a substrate per well at room temperature. Five minutes later, 50 μL of a stopping solution was added to each well, followed by measuring absorbance at 450 nm. A standard curve and a function were obtained from the concentrations of the standard solution and the absorbance values obtained.
(§2) One vial (1×10^7 cells/mL) of the hFVII-expressing cell line which had been selected and assimilated to a suspension culture in Example <2-3> was taken from a liquid nitrogen tank and thawed as soon as possible in a 37° C. bath. After being washed once with a seed culturing medium (EX-CELL CHO medium (Sigma, Cat. No. 63225C) supplemented with 0.3 g/L glutamine), the cell culture was centrifuged at 90×g for 5 min and then inoculated into 50 mL of a seed culture medium in an Erlenmeyer flask (Corning, USA cat#431144). When grown for 1-2 days to a density of 10×10^5 cells/mL in a CO2 incubator (37° C., 5% CO2), the cells were centrifuged again in the same manner and then sub-cultured in 100 mL of a fresh seed culture medium in a new Erlenmeyer flask. The double-volume passage was continued until there was a sufficient number of cells.
The effect of sodium butyrate on the production of hFVII was examined. For this, first, the recombinant CHO cell line which was being cultured was inoculated at a density of 5.0×10^6 cells/mL into 50 mL of a production medium in each of three Erlenmeyer flasks which contained sodium butyrate (Cat. no. B5887, SIGMA, USA) at concentrations of 0.3, 1.0 and 1.5 mM, respectively. The cells grown in the presence of 0.3 mM sodium butyrate were used as a control for comparison. The cells were cultured at 30.0° C. for four days to produce hFVII. On day 4, the cell concentration and cellular activity of the cell cultures were examined. There were no changes in cell density and cellular activity among the cell cultures of different butyrate concentrations.
In addition, after centrifugation of the cell cultures on Day 4, the levels of hFVII in the supernatants were measured using an enzyme immunoassay method as in Example <2-2>.

[3] = tested on: hFVII-expressing recombinant CHO cell line (HMF708); assay: Growth of the cell line in mass-scale production medium (4 L incubation tanks, continuous feed) containing sodium butyrate, hFVII level by enzyme immunoassay; conditions: for FVII Level (% compared to control %): 4 L, 30.0°C, 11-18 days
Protocol: as §1
as §2, with “assimilated to suspension culture” for “assimilated to a suspension culture”, “90×g for min and” for “90×g for 5 min and”, “of 10×10^5 cell/mL in a” for “of 10×10^5 cells/mL in a”, “continued until a sufficient” for “continued until there was a sufficient”, “number of cells were achieved.” for “number of cells.”
The effect of sodium butyrate on the production of hFVII was examined when the cells were cultured on mass scale. For this, first, the recombinant CHO cell line which was being cultured was inoculated at a density of 1.2×10^7 cells/mL into 4 L of a production medium in each of incubation tanks which contained sodium butyrate (Cat. no. B5887, SIGMA, USA) at concentrations of 0.3, 1.0, 1.5 and 2.0 mM, respectively. The cells grown in the presence of 0.3 mM sodium butyrate were used as a control for comparison. To produce hVII, the cells were cultured at 30.0° C. for 11-18 days with the medium continuously fed at 0.5-1.0 VVD. The culturing was stopped when cellular activity was reduced to less than 80%. […]
In addition, after the cell cultures taken during the cultivation was centrifuged, the levels of hFVII in the supernatants were measured using an enzyme immunoassay method as in Example <2-2>.

[4] = 0.3 mM sodium butyrate (control)
[5] = 1.0 mM sodium butyrate, day 4, control = 0.3 mM
[6] = 1.5 mM sodium butyrate, control = 0.3 mM
[7] = 1.5 mM sodium butyrate, day 4, control = 0.3 mM
[8] = day 4, among cultures with 0.3, 1.0 and 1.5 mM butyrate

SMILES | expression level of human factor VII [1] | FVII Level (% compared to control %) [2, 4] | Final Cell Density (% compared to control) ([2]; 0.3 mM sodium butyrate (control), day 4) | FVII Level (% compared to control %) ([2]; 1.0 mM sodium butyrate, control = 0.3 mM) | Cellular Activity (% compared to control) [2, 5] | Final Cell Density (% compared to control) [2, 5] | FVII Level (% compared to control %) [2, 6] | Cellular Activity (% compared to control) [2, 7] | Final Cell Density (% compared to control) [2, 7] | production of hFVII ([2]; 0.3, 1.0 and 1.5 mM sodium butyrate) | activity at 300 µM ([2]; Cricetulus griseus, CHO, 96 h, 0.3 mM sodium butyrate (control), day 4, read-out: Cellular Activity (% compared to control)) | cell density [2, 8] | cellular activity [2, 8] | FVII Level (% compared to control %) [3, 4] | FVII Level (% compared to control %) ([3]; 1 mM sodium butyrate, control = 0.3 mM) | FVII Level (% compared to control %) [3, 6] | FVII Level (% compared to control %) ([3]; 2.0 mM sodium butyrate, control = 0.3 mM) | amounts of FVII produced ([3]; higher concentrations of sodium butyrate, in spite of reduced periods of time of production)
CN(Cc1cnc2nc(N)nc(N)c2n1)c1ccc(C(=O)N[C@@H](CCC(=O)O)C(=O)O)cc1 [MTX, Methotrexate] | not increased | – | – | – | – | – | – | – | – | – | – | – | – | – | – | – | – | –
CCCC(=O)[O-].[Na+] [Sodium Butyrate, sodium butyrate] | – | 100.0% | 100.0% | 164.9% | 100.2% | 106.8% | 190.1% | 99.9% | 108.5% | increased in a sodium butyrate dose-dependent manner | 100% | no changes | no changes | 100.0% | 154.5% | 157.7% | 127.6% | higher amounts of FVII were produced
